Reference: ChEMBL document CHEMBL4296182, “CO-ADD screening of NIH NCI Diversity Set V”
≈ marks a conversion by molar mass, not a printed value.

Legend:
Klebsiella pneumoniae = experiment: microbe, parasite or virus in culture; conditions: ATCC 700603, 18 h, ASSAY_TEST Inhibition of Bacterial Growth, detection method Absorption (OD600), MEDIA CAMHB, plate type 384well, NBS, CORNING #3640
Description: Antibacterial activity against Klebsiella pneumoniae MDR ATCC 70063 (CO-ADD:GN_003); MIC in CAMBH media using NBS plates, by OD(600)

Candida albicans = experiment: microbe, parasite or virus in culture; conditions: ATCC 90028, ASSAY_TEST Inhibition of Fungal Growth, detection method Absorption (OD530), plate type 384well, NBS, CORNING #3640
Description: Antifungal activity against Candida albicans ATCC 90028 (CO-ADD:FG_001); MIC in YNB media using NBS plates, by OD630

Pseudomonas aeruginosa = experiment: microbe, parasite or virus in culture; conditions: ATCC 27853, 18 h, ASSAY_TEST Inhibition of Bacterial Growth, detection method Absorption (OD600), MEDIA CAMHB, plate type 384well, NBS, CORNING #3640
Description: Antibacterial activity against Pseudomonas aeruginosa ATCC 27853 (CO-ADD:GN_042); MIC in CAMBH media using NBS plates, by OD(600)

Acinetobacter baumannii = experiment: microbe, parasite or virus in culture; conditions: ATCC 19606, 18 h, ASSAY_TEST Inhibition of Bacterial Growth, detection method Absorption (OD600), MEDIA CAMHB, plate type 384well, NBS, CORNING #3640
Description: Antibacterial activity against Acinetobacter baumannii ATCC 19606 (CO-ADD:GN_034); MIC in CAMBH media using NBS plates, by OD600

Escherichia coli = experiment: microbe, parasite or virus in culture; conditions: ATCC 25922, 18 h, ASSAY_TEST Inhibition of Bacterial Growth, detection method Absorption (OD600), MEDIA CAMHB, plate type 384well, NBS, CORNING #3640
Description: Antibacterial activity against Escherichia coli ATCC 25922 (CO-ADD:GN_001); MIC in CAMBH media using NBS plates, by OD(600)

HEK293 = experiment: cells; format: functional; conditions: Homo sapiens, ATCC CRL1573, HEK293; ASSAY_TEST Inhibition of Cell Viability; detection method Resazurin; Fluorescence (ex560/em590); MEDIA DMEM with 10% FBS; plate type 384well; TC; CORNING #3712; time 18 hr
Staphylococcus aureus = experiment: microbe, parasite or virus in culture; conditions: ATCC 43300, 18 h, ASSAY_TEST Inhibition of Bacterial Growth, detection method Absorption (OD600), MEDIA CAMHB, plate type 384well, NBS, CORNING #3640
Description: Antibacterial activity against Staphylococcus aureus MRSA ATCC 43300 (CO-ADD:GP_020); MIC in CAMBH media, using NBS plates, by OD(600)

Description for Cryptococcus neoformans: Antifungal activity against Cryptococcus neoformans H99 ATCC 208821 (CO-ADD:FG_002); MIC in YNB media using NBS plates, by Resazurin OD(600-570)

SMILES | MIC (Klebsiella pneumoniae) [µM] | MIC (Candida albicans) [µM] | MIC (Pseudomonas aeruginosa) [µM] | MIC (Acinetobacter baumannii) [µM] | MIC (Cryptococcus neoformans) [µM] | MIC (Escherichia coli) [µM] | CC50 (HEK293) [µM] | MIC (Staphylococcus aureus) [µM]
CN(C)CCOc1ccc2c(c1)C(=O)/C(=C\c1ncc([N+](=O)[O-])n1C)C2 | > 10 | > 10 | > 10 | > 10 | > 10 | 0.156 (≈ 0.0557 µg/mL) | 1.55 | 5 (≈ 1.78 µg/mL)
Cc1ccccc1NC(=O)NCCN1CC1 | > 10 | > 10 | > 10 | > 10 | > 10 | > 10 | > 10 | > 10
c1ccc2nc(OCCN3CC3)ccc2c1 | > 10 | > 10 | > 10 | > 10 | > 10 | > 10 | > 10 | > 10
CO[C@@]12[C@H](COC(N)=O)C3=C(C(=O)C(C)=C(N)C3=O)N1C[C@@H]1N[C@@H]12 [MITOMYCIN] | > 10 | > 10 | 10 (≈ 3.34 µg/mL) | 5 (≈ 1.67 µg/mL) | > 10 | 1.25 (≈ 0.418 µg/mL) | 9.02 | 0.156 (≈ 0.0523 µg/mL)
O=C(Nc1ccccc1)C1=C(Nc2ccccc2)CSC1 | > 10 | > 10 | > 10 | > 10 | > 10 | > 10 | > 10 | > 10
O=C1C(Cl)=C(NCCc2ccccc2)C(=O)c2ccccc21 | > 10 | 0.625 (≈ 0.195 µg/mL) | > 10 | > 10 | 0.625 (≈ 0.195 µg/mL) | > 10 | > 10 | > 10
O=C(/C=C/c1cccnc1)c1ccccc1O | > 10 | > 10 | > 10 | > 10 | > 10 | > 10 | > 10 | > 10
Clc1ccc(SCNc2ccccc2Cl)cc1 | > 10 | > 10 | > 10 | > 10 | > 10 | > 10 | > 10 | > 10
Nc1ccc(Cn2ccc3c4c(N)nc(N)nc4ccc32)cc1 | 5 (≈ 1.52 µg/mL) | > 10 | 5 (≈ 1.52 µg/mL) | > 10 | > 10 | 1.25 (≈ 0.38 µg/mL) | > 10 | 1.25 (≈ 0.38 µg/mL)
COC(=O)C1(F)C(=O)NC(=O)NC1OC (stereo not given) | > 10 | > 10 | > 10 | > 10 | > 10 | > 10 | > 10 | 5 (≈ 1.1 µg/mL)
O=Nc1c(-c2cccc([N+](=O)[O-])c2)nc2ncccn12 | > 10 | 0.625 (≈ 0.168 µg/mL) | > 10 | > 10 | 2.5 (≈ 0.673 µg/mL) | > 10 | > 10 | 0.312 (≈ 0.0841 µg/mL)
O=C(O)c1[nH]c(=O)[nH]c(=O)c1F | > 10 | > 10 | > 10 | > 10 | > 10 | > 10 | > 10 | > 10
O=C1C=C(c2ccccc2)OC(=O)C1C(=O)c1ccccc1 (stereo not given) | > 10 | > 10 | > 10 | > 10 | > 10 | > 10 | > 10 | > 10
Nc1ccc(S(=O)(=O)Nc2cnc3ccccc3n2)cc1 [SULFAQUINOXALINE] | > 10 | > 10 | > 10 | > 10 | > 10 | > 10 | > 10 | > 10
CN1CCN(c2ccc([N+](=O)[O-])c3no[n+]([O-])c23)CC1 | > 10 | > 10 | > 10 | > 10 | > 10 | > 10 | 0.755 | 2.5 (≈ 0.698 µg/mL)
